Consider five molecules from PMC8773213, “In Vitro Anticancer Activity and Mechanism of Action of an Aziridinyl Galactopyranoside” (Biomedicines, 2021).

In series [1] the test system is HeLa (Human cervical carcinoma cells). As to the kind of experiment: Resazurin cell viability assay, HeLa. It is filed as cell-based. The settings on record: 72 h, read-out: IC50 (Mean ± SEM, µM), HeLa. As for the experimental part:
(§1) Exponentially growing cells were seeded in 96-well plates and allowed to attach and grow for 24 h. The cells were then treated with increasing concentrations of the tested drugs. At the end of the treatment period, cell viability was measured with the MTT assay or the resazurin assay, two widely used techniques.
(§2) The resazurin assay is a redox-based colorimetric/fluorometric technique based on the ability of viable cells to reduce the blue compound resazurin into the pink, fluorescent and soluble product resorufin. The amount of resorufin produced is generally proportional to the number of living cells. In this assay, 24 h after seeding, cells were exposed to the tested drugs for 72 h. Then 100 μL resazurin in medium was added to each well (final concentration of 10 μg/mL) and, one hour later the fluorescence intensity was measured at 530/590 nm (excitation/emission) using a fluorescence microplate reader.
(§3) In both assays, cell viability was expressed as percentage compared to untreated cells. Results were expressed as the means ± standard error of the mean (SEM). All data are from at least three independent experiments.
(In general: Resazurin is reduced to fluorescent resorufin, in cell work by metabolically active cells.)

For series [2], the system named is HepG2 (Human hepatocellular carcinoma cells). As to the kind of experiment: Resazurin cell viability assay, HepG2. The class given is cell-based. Conditions: 72 h, read-out: IC50 (Mean ± SEM, µM), HepG2. As for the experimental part: as §1, §2, §3
For series [3], the system named is SW480 (Human colon adenocarcinoma cells). Briefly: Resazurin cell viability assay, SW480. The settings on record: 72 h, read-out: IC50 (Mean ± SEM, µM), SW480. It is filed as cell-based. As to the method: as §1, §2, §3
Series [4] relates to PC3 (Human prostate cancer cells). As to the kind of experiment: Resazurin cell viability assay, PC3. The class given is cell-based. Conditions: 72 h, read-out: IC50 (Mean ± SEM, µM), PC3. As for the experimental part:
as §1, §2, §3

The test system of series [5] is NB4 (Human acute promyelocytic leukemia cells). As to the kind of experiment: Resazurin cell viability assay, NB4. The class given is cell-based. Conditions: 72 h, read-out: IC50 (Mean ± SEM, µM), NB4. As to the method:
as §1, §2, §3

The subject of series [6] is BJ-SV40T (SV40T-transformed BJ-hTERT cells). As to the kind of experiment: Resazurin cell viability assay, BJ-SV40T. The class given is cell-based. The settings on record: Homo sapiens, 72 h, read-out: IC50 (Mean ± SEM, µM), BJ-SV40T. As for the experimental part: as §1, §2, §3
The test system of series [7] is U2OS (Human osteosarcoma cells). As to the kind of experiment: Resazurin cell viability assay, U2OS. It is filed as cell-based. Conditions: 72 h, read-out: IC50 (Mean ± SEM, µM), U2OS. As to the method: as §1, §2, §3
Series [8] deals with VH10 (Human skin non-malignant cells). Briefly: Resazurin cell viability assay, VH10. It is filed as cell-based. Conditions: 72 h, read-out: IC50 (Mean ± SEM, µM), VH10. As for the experimental part:
as §1, §2, §3

The test system of series [9] is HL-60 (Human acute promyelocytic leukemia cells). As to the kind of experiment: Resazurin cell viability assay, HL-60. Conditions: 72 h, read-out: IC50 (Mean ± SEM, µM), HL-60. The class given is cell-based. As to the method: as §1, §2, §3
For series [10], the system named is cancer cell lines versus MRC-5 and VH10 normal cell lines. Briefly: Resazurin assay, panel of cancer cells versus normal cells. It is filed as cell-based, human. The settings on record: 72 h. As to the method: as §1, §2, §3
Next, we evaluated the cytotoxic activity of AzGalp in cancer cell lines derived from solid tumors (HeLa, PC3, U2OS, HepG2 and SW480) and from hematological malignancies (NB4 and HL-60). To study the selectivity against cancer cells, MRC-5 and VH10 cells were used as normal cell lines; 5-FU was used as a positive control. All cells were treated with AzGalp or 5-FU for 72 h and cell viability was evaluated with the resazurin assay. This assay was used to determine cell viability instead of the MTT assay because the HL60 and NB4 cell lines grow in suspension. […] Leukemia cell lines were approximately 15 times more sensitive than normal cells to the cytotoxicity of our aziridine.

Series [11] has as its system BJ-RASV12 (HRASV12-transformed BJ-SV40T cells). As to the kind of experiment: Resazurin cell viability assay, BJ-RASV12. The class given is cell-based, human. The settings on record: 72 h. As for the experimental part:
as §1, §2, §3

The subject of series [12] is BJ-hTERT (hTERT-immortalized skin non-malignant BJ cells). Briefly: Resazurin cell viability assay, BJ-hTERT. The class given is cell-based. Conditions: Homo sapiens, 72 h, read-out: IC50 (Mean ± SEM, µM), BJ-hTERT. As to the method: as §1, §2, §3
Series [13] has as its system MRC-5 (Human lung non-malignant cells). Briefly: Resazurin cell viability assay, MRC-5. The class given is cell-based. Conditions: MRC5, 72 h, read-out: IC50 (Mean ± SEM, µM), MRC-5. As for the experimental part:
as §1, §2, §3

For series [14], the system named is A549 cells. As to the kind of experiment: Glycolysis inhibition (glucose consumed, lactate produced). The class given is cell-based, human. The settings on record: A549, 8 h. As for the experimental part:
Inhibition of glycolysis was determined by measuring glucose consumed (initial product of glycolysis) and lactate produced (final product of glycolysis) in untreated and treated cells. Cells were seeded in 6-well plates at a density of 10^6 cells/well and were allowed to attach for a few hours before treatment with the tested compounds for 8 h. After treatment, medium was recollected and glucose and lactate concentrations were determined using the Accutrend® Plus analyzer together with Accutrend glucose strips and BM-Lactate strips (Roche Diagnostics, Barcelona, Spain). After calibrating the instrument with glucose and lactate calibration strips, test strips were used to determine glucose and lactate levels through colorimetric oxidase mediator reactions according to the manufacturer’s instructions. The results are expressed as percentage of glucose consumption and percentage of lactate production in relation to untreated cells. Data were averaged from two independent experiments and shown as mean ± SEM.

Series [15] relates to A549 cells. It is filed as cell-based. The settings on record: A549, 48 h, antioxidant added 1 h before; MTT. As to the method: as §1
In the case of the MTT assay, this technique detects viable cells using the ability of these cells to reduce the yellow tetrazolium MTT to an insoluble colored formazan product. Subsequently, this product was solubilized and analyzed by spectrophotometry. Dead cells cannot reduce the MTT into the colored formazan product. Briefly, 24 h after plating, cells were treated with the tested compounds for 48 h; except in experiments with DNA repair-proficient and -deficient cell lines, in which cells were only exposed for 24 h to drugs and allowed to grow for an additional 48 h in drug-free medium to allow them to repair possible DNA damage induced by the tested drugs. After the treatment period, the medium was removed, the cells were washed once with PBS and 125 μL MTT (1 mg/mL in medium) was added to each well. Plates were incubated for 2–4 h and then 80 μL 20% SDS in 0.02 M HCl was added to each well. Finally, plates were incubated overnight at 37 °C and optical densities were measured at 540 nm using an absorbance spectrophotometer microplate reader.
as §3

Series [16] deals with AA8 cells. As to the kind of experiment: Comet assay (DNA damage). The class given is cell-based, Chinese hamster. The settings on record: 1 mM, 4 h. The text has this: The single cell gel electrophoresis assay, also known as comet assay, is a widely used technique for the study of levels of damage in cellular DNA. In this assay, individual cells embedded in agarose are lysed, electrophoresed, stained with a fluorescent dye and examined under an epifluorescence microscope. […] The quantity of DNA present in the tail is indicative of DNA damage. This assay has been described in detail by Singh et al.. We followed this protocol with minor modifications previously described. Briefly, standard slides were immersed in 1% normal melting agarose at 55 °C, left to allow the agarose to solidify and kept at 4 °C until use. Cells were seeded in 6-well plates, allowed to grow for 24 h and then cells were exposed to AzGalp or CTP (positive control) for 4 h. At the end of the treatment, cells were harvested by trypsinization, washed with PBS and resuspended in PBS at a concentration of approximately 1 million cells/mL; 10 µL cell suspension was mixed with 85 μL of low-melting agarose (LMA) at 37 °C and the mixture was quickly added to the slides with the first layer of agarose, spread using a coverslip and kept at 4 °C for 8 min to allow the LMA to solidify. The coverslips were then removed and another layer of 100 μL of LMA at 37 °C was added, covered with a coverslip and allowed to solidify at 4 °C for 8 min. After removing the coverslips, the slides were incubated in the dark for 1 h at 4 °C in a lysis buffer (pH 10.0) containing 0.25 M NaOH, 10% DMSO, 1% Triton X-100, 10 mM Tris-HCl, 100 mM Na2-EDTA and 2.5 M NaCl. Next, alkaline denaturation with electrophoretic buffer (300 mM NaOH and 1 mM Na2-EDTA) was carried out in an electrophoresis chamber for 20 min and then electrophoresis was performed at 1 V/cm for 20 min. […] DNA damage levels were quantified for each cell and expressed as percent of DNA in the tail and as the tail moment (defined as the product of the tail length and the fraction of total DNA in the tail). The results were averaged from two independent experiments and expressed as mean ± SEM.

In series [17] the test system is UV4 and AA8 cells. Briefly: Clonogenic survival assay. The class given is cell-based, Chinese hamster. Conditions: 3 µM, 24 h, then colonies in drug-free medium. As for the experimental part: Cell survival after treatment was determined by clonogenic assay. AA8 and UV4 cells were seeded in 6 cm Petri dishes 4 h prior to treatment for 24 h. After that, drugs were removed and cells were allowed to form colonies for eight days. The colonies were then stained with 0.4% methylene blue in methanol for 15 min. Surviving colonies made up of more than 50 cells per colony were counted. Results were represented as percentage of survival referred to untreated cells.

As usually defined, the IC50 is the concentration needed to halve the response being measured. `O=c1[nH]cc(F)c(=O)[nH]1` [5-FU, 5-fluorouracil, reference compound]: the 50% inhibitory concentration (IC50) in series [1] came out at 66.3 ± 27 µM; in [2], 0.6 ± 0.3 µM; in series [3], 2.9 ± 1.3 µM; in series [4] it was 1.5 ± 0.3 µM; in series [5], 2.5 ± 0.3 µM; in series [6] it was 5.4 ± 0.7 µM. Also, the IC50 was 6.4 ± 0.7 µM in [7]; over 1000 µM in series [8]; 0.9 ± 0.8 µM in series [9]; 3 ± 1.4 µM in series [11] (Homo sapiens, resazurin assay, read-out: IC50 (Mean ± SEM, µM), BJ-RASV12); 2.4 ± 0.5 µM in series [12]; over 1000 µM in series [13]. Also, in series [10] (HL60 and NB4, concentrations between 10 and 100 µM), the “Viability of leukemia cells” value is reported as “higher than 20%”. The “Viability of normal cells” value in series [10] (MRC-5 and VH10, concentrations between 10 and 100 µM) is listed as “showed cytotoxicity against these cells”. Also, the “Sensitivity of BJ-RASV12 malignant cells relative to BJ-hTERT non-malignant cells” value in series [11] (resazurin) is listed as “did not observe this selectivity”.
Take `O=C(O)C(Cl)Cl` [DCA, dichloroacetate, reference compound]: in series [14], the “Glycolytic activity (glucose consumption and lactate production)” value is “reduced lactate production and glucose consumption”.
As to `OO` [H2O2, hydrogen peroxide, reference compound], in series [15], the “Effect of MnTMPyP on cytotoxicity” value is “decreased in the presence of the three antioxidants”, the “Effect of NAC on cytotoxicity” value was “decreased in the presence of the three antioxidants” and the “Effect of catalase on cytotoxicity” value is listed as “decreased in the presence of the three antioxidants”.
With `COc1cc(C(=O)O)cc(OC)c1O` [Syringic acid, reference compound], the “DNA damage in comet assay” value in series [16] is listed as “does not induce DNA damage”.
As to `COc1cc([C@@H]2c3cc4c(cc3[C@@H](O[C@@H]3O[C@@H]5CO[C@@H](C)O[C@H]5[C@H](O)[C@H]3O)[C@H]3COC(=O)[C@H]23)OCO4)cc(OC)c1O` [etoposide, reference compound], the “Cell survival, UV4 versus AA8 (clonogenic assay)” value in series [17] is on record as “UV4 cells were more sensitive”.
